Reference: EP4799624A2 (priority 2021, dated 2023)

Assay: in vivo
Conditions: mouse, po

Cc1c(-c2ccc(O)cc2)n(Cc2ccc(OCCN3CCCCC3)cc2)c2ccc(O)cc12 [Pipendoxifene, 2-(4-hydroxyphenyl)-3-methyl-1-[[4-(2-piperidin-1-ylethoxy)phenyl]methyl]indol-5-ol]
NOAEL: ≥ 750 mg/kg/day
